Source: US9475759B2, “Tigecycline crystalline hydrate and preparation method therefor and use thereof” (priority 2011, dated 2016)

Experiment: Test for hygroscopicity (hygroscopic weight gain)
Assay type: physicochemical
Conditions: 25° C., relative humidity about 70%, about 5 g sample, sampling time 12 hours
Procedure: The tigecycline crystalline hydrates according to the invention can be stable for storage. A hygroscopicity test is conducted directed to a tigecycline hydrate sample and a tigecycline anhydride sample: about 5 g of the tigecycline anhydride and 5 g of the hydrate of the invention are taken, and they are placed in a dry and weight-constant surface vessel and precisely weighted. […] On the conditions of RH 75% and 30° C., the tigecycline crystalline hydrate is sealed in a vial for conducting a six-month acceleration stability test. According to the testing conditions of HPLC process of the tigecycline in relevant literatures: C18 (250 mm×4.6 mm, 5 μm) acetonitrile:phosphate buffer (1.29 g of citric acid and 2.76 g of anhydrous disodium hydrogen phosphate are dissolved in water and diluted to 1000 ml) (80:20) as the mobile phase; detection wavelength is 248 nm; the column temperature is room temperature; and the flowing rate is 1 ml/min. Under the conditions, the tigecycline contents and related substances are determined.
The tigecycline hydrates of the present invention may be stable for storage. Samples of tigecycline hydrates and anhydrides and amorphous tigecycline are used to conduct the test for hygroscopicity: respectively, about 5 g tigecycline anhydrides (obtained by drying tigecycline.0.5H2O hydrate prepared according to Example 1), about 5 g amorphous tigecycline (prepared by referring to the process as described in the reference document CN101367747A) and about 5 g the hydrates of the present invention are placed in a dry and constant weight watch glass, and the system is precisely weighed.

SMILES	As compared to the sample time of 0 h, weight gains % [%]
CN(C)c1cc(NC(=O)CNC(C)(C)C)c(O)c2c1C[C@H]1C[C@H]3[C@H](N(C)C)C(O)=C(C(N)=O)C(=O)[C@@]3(O)C(O)=C1C2=O [Amorphous tigecyline, tigecycline]	1.3
CN(C)c1cc(NC(=O)CNC(C)(C)C)c(O)c2c1C[C@H]1C[C@H]3[C@H](N(C)C)C(O)=C(C(N)=O)C(=O)[C@@]3(O)C(O)=C1C2=O.CN(C)c1cc(NC(=O)CNC(C)(C)C)c(O)c2c1C[C@H]1C[C@H]3[C@H](N(C)C)C(O)=C(C(N)=O)C(=O)[C@@]3(O)C(O)=C1C2=O.O [Tigecycline•0.5 H2O hydrate, Tigecycline.0.5H2O Hydrate]	0.2
CN(C)c1cc(NC(=O)CNC(C)(C)C)c(O)c2c1C[C@H]1C[C@H]3[C@H](N(C)C)C(O)=C(C(N)=O)C(=O)[C@@]3(O)C(O)=C1C2=O [Tigecycline anhydride]	1.4
CN(C)c1cc(NC(=O)CNC(C)(C)C)c(O)c2c1CC1CC3C(N(C)C)C(O)=C(C(N)=O)C(=O)C3(O)C(O)=C1C2=O.O.O (stereo not shown) [Tigecycline•2 H2O hydrate, Tigecycline.2H2O Hydrate]	0.1
